According to PMC10747822 (Pharmaceutics, 2023):
Where a SMILES comes first, the peptide text is derived from it. [ ]: non-standard residue; d: D form. The star is where a group is joined. NH(4-amidinobenzyl) = N=C(N)c1ccc(CN*)cc1

Columns and labels:
[1] = Bench-top stability in fresh mouse whole blood; format: in vitro ADME; conditions: minimally diluted, 1 µg/mL (1000 ng/mL), room temperature, sampled at 0, 1 and 2 h, duplicates of 20 µL, UPLC-MS/MS peak area ratio analyte/IS, read-out: calculated half-life in whole blood (converted)
Procedure: (§1) To investigate peptide stability, minimally diluted plasma or blood samples were generated through the addition of 10 µL of a spiking solution (50,000 ng/mL) to 490 µL of the pertinent biological matrix, resulting in a sample concentration of 1000 ng/mL. Samples (withdrawal of duplicates of 20 µL) were measured immediately after preparation and again after 1 and 2 h. Stability was evaluated via the comparison of peak area ratios of analyte and IS.
(§2) To determine which biological matrix is best suited for pharmacokinetic experiments in mice, we investigated the bench-top stability of Ac-[D-Leu]LLLRVK-amba in plasma and fresh whole blood at room temperature over a 2 h period (Figure 3). In plasma, anti-coagulated with Li-heparin, Ac-[D-Leu]LLLRVK-amba was very rapidly degraded.

[2] = Stability in human whole blood; format: in vitro ADME; conditions: human whole blood (K-EDTA), over at least 2 h; 1000 ng/mL, room temperature; UPLC-MS/MS
Procedure: as §1
(§3) Because an isotopically labeled analog of Ac-[D-Leu]LLLRVK-amba was used as IS, potential variations in (negligible) matrix effects can be efficiently balanced by the IS due to its identical physicochemical characteristics. As a consequence, whole blood from other species is appropriate for calibration and QC preparation. Therefore, whole blood from human donors was used for these purposes, which also helps to reduce animal sacrifice.

[3] = Bench-top stability in mouse plasma; format: in vitro ADME; conditions: mouse plasma anti-coagulated with Li-heparin, minimally diluted, room temperature
Procedure: as §1, §2

[4] = Metabolite identification / degradation in mouse plasma by HRMS; format: in vitro ADME; conditions: minimally diluted mouse plasma
Procedure: Metabolite identification experiments were performed in minimally diluted mouse plasma at a Ac-[D-Leu]LLLRVK-amba concentration of 20 µg/mL. Minimally diluted plasma samples were incubated at room temperature and analyzed after 0, 0.5, 4, and 16 h. Samples were depleted from proteins via precipitation with a 2-fold excess of ACN + 0.1% FA and diluted with one equivalent of water + 0.1% FA for direct infusion onto the mass spectrometer.
High-resolution mass spectrometric (HRMS) determinations for the investigation of Ac-[D-Leu]LLLRVK-amba metabolism/degradation in plasma were performed on a Xevo G2-XS QTof (Waters, Milford, MA, USA) equipped with a heated Z-spray ESI source. Measurements were performed via direct infusion using the integrated infusion pump with positive ion sensitivity mode.

[5] = 37 °C, 500 µg/mL; cited from earlier work
Procedure: However, these were conducted at a substantially higher concentration of Ac-[D-Leu]LLLRVK-amba of 500 µg/mL compared to the 1 µg/mL investigated here. […] Such lower stability in plasma compared to whole blood was already reported for several peptides.

PACE4 = conditions: cited from earlier work
Source text: PACE4 is a calcium-dependent serine endoprotease, which has been identified as a potential therapeutic target in prostate cancer. Recently, an efficient inhibitory peptide for PACE4 has been reported, Ac-[D-Leu]LLLRVK-amba, which inhibits PACE4 with low nanomolar affinity. Such high affinity was achieved by optimizing the previously discovered multi-Leu peptide by inserting a […] acetylated D-leucine and replacing the […] arginine with a decarboxylated variant, a 4-amidinobenzylamide (amba) moiety.

Stock solution stability = format: physicochemical; conditions: 2 weeks; solutions in ACN/H2O (1/1, v/v) + 0.1% FA in glass, kept at 4 °C
Procedure: Calibration and quality control (QC) spike solutions were prepared in ACN/H2O (1/1, v/v) + 0.1% FA in glass vials. These were produced from stock solution generated from accurately dissolved independent weighings into 2 mL volumetric flasks. Calibration solutions were prepared at concentrations of 8, 24, 80, 240, 800, […], and 8000 ng/mL. QC solutions were prepared at concentrations of 8, 24, 3000, and 6000 ng/mL. The IS spike solution was prepared accordingly at a concentration of 400 ng/mL. Solutions were kept at 4 °C.
Extraction via protein precipitation combined with UPLC-MS/MS quantification for Ac-[D-Leu]LLLRVK-amba complied with the FDA and EMA recommendations for accuracy, precision, linearity, matrix effects, and recovery. Within the calibrated range (10–10,000 ng/mL), correlation coefficients (r^2) of >0.99 were obtained using linear regression and 1/x^2 weighting (Table S3). Table 1 gives an overview of the intraday and interday accuracies and precision values during validation, which were well within the required limits. The observed carry-over after the highest calibration sample was 0.015% and within the required limits of less than 20% of the peak area of the LLOQ. Stock solution stability was established for 2 weeks, which was sufficient to cover sample analyses with an accuracy of 93.7% of the peak areas of the stored solutions compared to initial values.

LNCaP xenograft = conditions: cited from earlier work
Source text: A major challenge in the development of peptide therapeutics is their susceptibility to enzymatic hydrolysis in biological systems. A primary mechanism of enzymatic degradation of small peptides in the systemic circulation is peptidase-mediated hydrolysis, especially of terminal amino acids by exopeptidase activity. Ac-[D-Leu]LLLRVK-amba comprises stability-enhancing modifications at both peptide termini: a D-amino acid at the N-terminus and an amba-moiety as a decarboxylated arginine variant at the C-terminus. Both modifications impair substrate properties for exopeptidases and thus inc ... || The pharmacokinetics of Ac-[D-Leu]LLLRVK-amba was already determined after intravenous bolus injection. With a half-life of only 9 min, this route of administration only produced a short period of potentially effective concentrations. […] Therefore, we aimed at flattening the pharmacokinetic profile with alternate routes of administr ...

[6] = Stability in human Li-heparin plasma; format: in vitro ADME; conditions: pooled human Li-heparin plasma, over at least 2 h; 1000 ng/mL, room temperature; UPLC-MS/MS
Procedure: as §1, §3

Compound: CC(=O)N[C@H](CC(C)C)C(=O)N[C@@H](CC(C)C)C(=O)N[C@@H](CC(C)C)C(=O)N[C@@H](CC(C)C)C(=O)N[C@@H](CCCNC(=N)N)C(=O)N[C@H](C(=O)N[C@@H](CCCCN)C(=O)NCc1ccc(C(=N)N)cc1)C(C)C [Ac-[D-Leu]LLLRVK-amba] (Ac-[dL]LLLRVK-{NH(4-amidinobenzyl)})
- half-life at 1000 ng/mL [1]: 83.4 min
- degradation in human whole blood [2]: no detectable degradation
- half-life at 1000 ng/mL ([3]; CD-1, 1 µg/mL (1000 ng/mL), sampled at 0, 1 and 2 h, duplicates of 20 µL, UPLC-MS/MS peak area ratio analyte/IS, read-out: calculated half-life (t1/2) in plasma (converted)): 28.8 min
- calculated half-life (t1/2) in plasma ([3]; 1 µg/mL, 0, 1 and 2 h, duplicates, UPLC-MS/MS, same value given in min): 29 min
- metabolites / degradation products in mouse plasma ([4]; 20 µg/mL, room temperature over 16 h, HRMS, neither peptide bond hydrolysis nor oxidation products): no traces of metabolites were observed
- stability in mouse plasma at 20 µg/mL ([4]; room temperature, 0, 0.5, 4 and 16 h, HRMS direct infusion (m/z 50-1200)): several hours
- half-life in Na-heparin mouse plasma [5]: 18 h
- affinity of PACE4 inhibition (PACE4): low nanomolar
- stock solution stability, accuracy of peak areas of stored solutions compared to initial values (Stock solution stability): 93.7%
- efficacy in mouse xenograft models of prostate cancer (LNCaP xenograft; daily intravenous and intratumoral injection of 2 mg/kg): demonstrated
- efficacy in treating prostate cancer in LNCaP xenograft mice, by route (LNCaP xenograft; intratumoral vs intravenous administration): substantially higher when injected intratumorally than when administered intravenously
- degradation in human Li-heparin plasma [6]: no detectable degradation
